Reference: patent publication US20250333714A1, “ARTIFICIAL DNA REPLISOME AND METHODS OF USE THEREOF” (Regents of the University of Minnesota, priority 2021, published 2025)

Tests used:
[1] = tested on: kanR* gene on target plasmid; experiment: kanR* reversion assay (frequency of kanamycin-resistant colonies); type: cell-based, E. coli
Experimental: Three DNA elements were added to E. coli to create a targeted error-prone artificial replisome: a constitutively-expressed, chromosomal CisA gene, a target vector plasmid and a helper vector plasmid (FIG. 1A-1B and FIG. 5). The target vector contained the gene(s) of interest targeted for mutagenesis between the CisA initiation and termination sequences. To quantify the increase in mutagenesis, mutagenesis was targeted to the gene for a kanamycin resistance protein (aminoglycoside phosphotransferase (3)-IIIa). This gene, named kanR*, carried a single nucleotide substitution (A785C), which encodes an E262A amino acid substitution that inactivates the kanamycin resistance (Thompson et al., J Biol Chem, 274 (43): 30697-30706, (1999)). Mutations that reverse this substitution will restore gene function, allowing the cells to grow in the presence of kanamycin. Resistant colony-forming unit (CFU) per pl of full density culture (frequency of resistant CFU per cell plated) is used as a readout for mutagenic capacity. The helper plasmid contains a gene encoding the fusion of the error-prone T5 DNA polymerase to the Rep helicase under the control of a T7 promoter. (The host cell also contains a chromosomal gene to express the T7 RNA polymerase and a deletion of the chromosomal Rep gene to eliminate potential competition with the fusion protein.)
The DNA polymerase activity of the T5 DNA polymerase-Rep helicase fusion protein was measured by its capacity to mutate the target, kanR* and restore kanamycin resistance. The bacteria, in this Example, contained all three elements of the targeted error-prone artificial replisome: a constitutively-expressed, chromosomal CisA gene, the target plasmid carrying the kanR* gene flanked by the initiation and termination sequences, and the helper plasmid expressing the T5 DNA polymerase-Rep helicase fusion protein. These cells were picked from a transformation plate, propagated in liquid for ten generations to accumulate mutations and then plated onto kanamycin-containing media for selection.
KanR* reversion assay was used. Three transformations were carried out, all into the host cell for TADR, as shown in FIG. 2C: the helper plasmid with the wildtype T5 polymerase co-transformed with the target plasmid; the helper plasmid with the error-prone T5 polymerase mutant, with the target plasmid without the recognition and termination sequences; the helper plasmid with the error-prone T5 polymerase mutant, with the target plasmid. Transformant colonies were selected on LB agar plates supplemented with 15 ng/μl chloramphenicol and 50 ng/μl ampicillin and inoculated to a liquid LB cultures with chloramphenicol and ampicillin. After overnight growth, 50 μl culture from each sample was plated on LB plates supplemented with 30 ng/μl kanamycin. After 16 h incubation at 37° C., colonies were counted.

[2] = tested on: bacteria lacking endogenous Rep helicase; experiment: assay of sensitivity to nalidixic acid (Rep helicase activity); type: cell-based, E. coli; conditions: 2.5 ng/μl nalidixic acid; rep- cells with helper plasmid
Experimental: The Rep helicase activity of the T5 DNA polymerase-Rep helicase fusion was measured by its ability to alleviate growth retardation caused by nalidixic acid in a strain lacking endogenous Rep helicase (Henderson et al., PLOS ONE, 10 (5): e0128092, (2015)). Bacteria normally tolerate low levels of nalidixic acid, but bacteria lacking endogenous Rep helicase grow more slowly because nalidixic acid inhibits DNA gyrase and topoisomerase.
Assay of sensitivity to nalidixic acid was used(Henderson et al., PLOS ONE, 10 (5): e0128092, (2015)). Three cell lines were prepared, namely TADR cells modified to have intact chromosomal rep, TADR cells (rep-) and TADR cells (rep-) transformed with helper plasmid (expressing the fusion protein). A Rep gene knockout mutation was P1-transduced from Keio-collection(Baba et al., Mol Syst Biol, 2 2006.0008-2006.0008, (2006)) into the host cell for using standard technique of molecular cloning(Green, (2012)). The helper plasmid was transformed into this rep-cell and selected on LB agar plate supplemented with 50 ng/μl ampicillin. From this cell line together with other two—the host cell for, its rep-derivative, single colonies were inoculated into liquid LB culture (ampicillin was added to cultures of the first cell line). […]

DNA = conditions: cited from earlier work
primed DNA substrate [3] = conditions: cited from earlier work
primed DNA substrate [4] = experiment: association of DNA polymerase with primed DNA substrate; type: binding; conditions: local effective concentration of polymerase 0.2-0.6 mM; kon of T7 assumed
Experimental: The artificial replisome must simultaneously unwind DNA and copy the exposed strand to prevent degradation of the exposed ssDNA, which causes genetic instability. In addition, DNA synthesis must avoid premature termination within the target region. Connecting Rep helicase and T5 DNA polymerase with a flexible linker increases the local effective concentrations to an estimated 0.2-0.6 mM(Li et al., Protein Sci, 27 (9): 1600-1610, (2018)) in order to achieve both of these goals. The CisA protein recruits Rep helicase to the target region and stabilizes it. Rep helicase unwinds DNA at about 144 base-pairs/s (Arslan et al., Science (New York, N.Y.), 348 (6232): 344-347, (2015)), so DNA synthesis must initiate at least that fast to proceed simultaneously. The bimolecular association rate constant of T7 DNA polymerase (kon) for primed DNA substrate is 3.6×10^7M^−1s^−1 (Luo et al., Proceedings of the National Academy of Sciences, 104 (31): 12610-12615, (2007)) and it was assumed T5 DNA polymerase associates at a similar rate. If the local effective concentration of polymerase is 0.2-0.6 mM, then the rate of association is 7200-22,000 s^−1, which far exceeds the rate of unwinding. […]

[5] = six-His tag linked to C-terminus; cited from earlier work

## T5 DNA polymerase-Rep helicase fusion protein: T5 DNA polymerase (D164A, E166A, A593R) linked by 81-amino acid linker to Rep helicase; SEQ ID NO:22
[1]; LB
  frequency of kanamycin-resistant colonies, fold over control whose target plasmid was without initiation sequence: 4.2 fold
[1]; LB, wildtype Rep, T5 D164A, E166A, A593R
  frequency of kanamycin-resistant colonies, fold increase over control with wildtype T5 DNA polymerase: 128 fold
[1]; stem-loop designed into 5′ UTR of the fusion gene
  increase in mutation rate from engineered 5′ UTR: up to 150 fold
[2]
  effect on nalidixic acid inhibition of growth: partially alleviated

## fusion containing RepΔC33: fusion protein in which the 33 C-terminal amino acids of Rep helicase were deleted; SEQ ID NO:10
[1]; LB
  frequency of kanamycin-resistant colonies, fold over control whose target plasmid was without initiation sequence: 67 fold
  increase in selectivity from RepΔC33 versus wildtype Rep: 16 fold

## E. coli PolA: E. coli DNA polymerase I, slower than Rep helicase
DNA
  speed of DNA unwinding or DNA synthesis: ~15 base-pairs/s

B1: T7 DNA polymerase: bacteriophage T7 DNA polymerase, used in the initial failed TADR (protein, UniProt P00581 1-704, looked up)
DNA-directed DNA polymerase: MIVSDIEANALLESVTKFHCGVIYDYSTAEYVSYRPSDFGAYLDALEAEVARGGLIVFHNGHKYDVPALTKLAKLQLNREFHLPRENCIDTLVLSRLIHSNLKDTDMGLLRSGKLPGKRFGSHALEAWGYRLGEMKGEYKDDFKRMLEEQGEEYVDGMEWWNFNEEMMDYNVQDVVVTKALLEKLLSDKHYFPPEIDFTDVGYTTFWSESLEAVDIEHRAAWLLAKQERNGFPFDTKAIEELYVELAARRSELLRKLTETFGSWYQPKGGTEMFCHPRTGKPLPKYPRIKTPKVGGIFKKPKNKAQREGREPCELDTREYVAGAPYTPVEHVVFNPSSRDHIQKKLQEAGWVPTKYTDKGAPVVDDEVLEGVRVDDPEKQAAIDLIKEYLMIQKRIGQSAEGDKAWLRYVAEDGKIHGSVNPNGAVTGRATHAFPNLAQIPGVRSPYGEQCRAAFGAEHHLDGITGKPWVQAGIDASGLELRCLAHFMARFDNGEYAHEILNGDIHTKNQIAAELPTRDNAKTFIYGFLYGAGDEKIGQIVGAGKERGKELKKKFLENTPAIAALRESIQQTLVESSQWVAGEQQVKWKRRWIKGLDGRKVHVRSPHAALNTLLQSAGALICKLWIIKTEEMLVEKGLKHGWDGDFAYMAWVHDEIQVGCRTEEIAQVVIETAQEAMRWVGDHWNFRCLLDTEGKMGPNWAICH
[1]; TADR implemented with T7 DNA polymerase
  targeted mutagenesis: no targeted mutagenesis was seen
Primed DNA substrate [3]
  bimolecular association rate constant (kon): 3.6e+07 M⁻¹ s⁻¹

B2: I308V: self-evolved variant of error-prone T5 DNA polymerase with single I308V substitution; SEQ ID NO:3 (protein)
chain: MKIAVVDKALNNTRYDKHFQLYGEEVDVFHMCNEKLSGRLLKKHITIGTPENPFDPNDYDFVILVGAEPFLYFAGKKGIGDYTGKRVEYNGYANWIASISPAQLHFKPEMKPVFDATVENIHDIINGREKIAKAGDYRPITDPDEAEEYIKMVYNMVIGPVAFASATSALYCRDGYLLGVSISHQEYQGVYIDSDCLTEVAVYYLQKILDSENHTIVFHNLKFDMHFYKYHLGLTFDKAHKERRLHDTMLQHYVLDERRGTHGLKSLAMKYTDMGDYDFELDKFKDDYCKAHKIKKEDFTYDLIPFDVMWPYAAKDTDATIRLHNFFLPKIEKNEKLCSLYYDVLMPGCVFLQRVEDRGVPISIDRLKEAQYQLTHNLNKAREKLYTYPEVKQLEQDQNEAFNPNSVKQLRVLLFDYVGLTPTGKLTDTGADSTDAEALNELATQHPIAKTLLEIRKLTKLISTYVEKILLSIDADGCIRTGFHEHMTTSGRLSSSGKLNLQQLPRDESIIKGCVVAPPGYRVIAWDLTTAEVYYAAVLSGDRNMQQVFINMRNEPDKYPDFHSNIAHMVFKLQCEPRDVKKLFPALRQAAKRITFGILYGSGPAKVAHSVNEALLEQAAKTGEPFVECTVADAKEYIETYFGQFPQLKRWIDKCHDQIKNHGFIYSHFGRKRRLHNIHSEDRGVQGEEIRSGFNAIIQSASSDSLLLGAVDADNEIISLGLEQEMKIVMLVHDSVVAIVREDLIDQYNEILIRNIQKDRGISIPGCPIGIDSDSEAGGSRDYSCGKMKKQHPSIACIDDDEYTRYVKGVLLDAEFEYKKLAAMDKEHPDHSKYKDDKFIAVCKDLDNVKRILGA
[1]; versus ancestor error-prone T5 DNA polymerase
  increase in mutation rate (kanamycin-resistant CFU) from self-evolution / I308V: 3.2 fold

B3: T5 DNA polymerase: DNA polymerase of bacteriophage T5, NCBI YP_006950.1, SEQ ID NO:1 (protein)
chain: MKIAVVDKALNNTRYDKHFQLYGEEVDVFHMCNEKLSGRLLKKHITIGTPENPFDPNDYDFVILVGAEPFLYFAGKKGIGDYTGKRVEYNGYANWIASISPAQLHFKPEMKPVFDATVENIHDIINGREKIAKAGDYRPITDPDEAEEYIKMVYNMVIGPVAFDSETSALYCRDGYLLGVSISHQEYQGVYIDSDCLTEVAVYYLQKILDSENHTIVFHNLKFDMHFYKYHLGLTFDKAHKERRLHDTMLQHYVLDERRGTHGLKSLAMKYTDMGDYDFELDKFKDDYCKAHKIKKEDFTYDLIPFDIMWPYAAKDTDATIRLHNFFLPKIEKNEKLCSLYYDVLMPGCVFLQRVEDRGVPISIDRLKEAQYQLTHNLNKAREKLYTYPEVKQLEQDQNEAFNPNSVKQLRVLLFDYVGLTPTGKLTDTGADSTDAEALNELATQHPIAKTLLEIRKLTKLISTYVEKILLSIDADGCIRTGFHEHMTTSGRLSSSGKLNLQQLPRDESIIKGCVVAPPGYRVIAWDLTTAEVYYAAVLSGDRNMQQVFINMRNEPDKYPDFHSNIAHMVFKLQCEPRDVKKLFPALRQAAKAITFGILYGSGPAKVAHSVNEALLEQAAKTGEPFVECTVADAKEYIETYFGQFPQLKRWIDKCHDQIKNHGFIYSHFGRKRRLHNIHSEDRGVQGEEIRSGFNAIIQSASSDSLLLGAVDADNEIISLGLEQEMKIVMLVHDSVVAIVREDLIDQYNEILIRNIQKDRGISIPGCPIGIDSDSEAGGSRDYSCGKMKKQHPSIACIDDDEYTRYVKGVLLDAEFEYKKLAAMDKEHPDHSKYKDDKFIAVCKDLDNVKRILGA
modifications: Escherichia virus T5
Primed DNA substrate [4]
  rate of association: 7200-22,000 s^−1
[5]
  effect of six-His tag on polymerase activity: did not interfere with polymerase activity
